Measurements reported in patent publication US20260263517A1, “THERAPEUTIC METHODS WITH TARGET-LINKED SMALL MOLECULES AND ANTI-TARGET CAR T CELLS” (Seattle Children's Hospital (dba Seattle Children's …, priority 2022, published 2026).
Entries after “also recorded” stand apart in the source; their conditions may differ.

Columns and labels:
tumor cell surface FR = conditions: cited from earlier work
[1] = cited from earlier work
HOS-FRα tumors = assay: subcutaneous HOS-FRα osteosarcoma xenograft, E2 CAR-T cells plus EC17; type: in vivo
Source text: A dosing regimen is shown in FIG. 21 which includes administration of about 5 million E2 CAR T cells at day −3; administration of EC17 at days 0, 3, 7, 14, 17, 21, 28, 31 and 35. Sequential escalating doses of EC17 will be administered under the following rules: If no CRS or neurotoxicity, advance through EC17 dose escalation as planned. If CRS grade≤2, administer all subsequent EC17 doses at die Sequence level that provoked the non-serious CRS in the stone cycle. If CRS grade>2, cancel further EC17 doses in the current Cycle, and commence all subsequent Cycles at the next highest Sequence below that which provoked the severe CRS (sCRS).
HOS-FRα (i.e. HOS-143b-LV-FRα) is a subclone of HOS-143B (ATCC CRL-8303) stably transfected with human FRα. HOS-143B was originally derived from a […] with osteosarcoma. The tumor cells were grown in folate-deficient RPMI 1640 with 5% FBS at 37° C. in a 5% CO2 humidified atmosphere. For the in-vivo study, tumor cells were inoculated subcutaneously at 1×10^6 cells per animal.
EGFRt-sorted anti-FITC E2 scFv-CAR T cells were frozen in a T-cell freezing medium. Upon arrival, vials of frozen CAR-T cells were immediately stored at −80° C. The CAR-T cells were quickly thawed at 37° C., washed twice with PBS, and used for animal injection at 6 million viable EGFRt+E2 CAR-T cells (CD4/CD8 at ~1:1) per animal. A small aliquot was taken on the day infusion for flow cytometric analysis of E2-CAR T-cell phenotypes.
EC17 dosing solutions were prepared when dosing began by weighing appropriate amounts of each compound, reconstituting in PBS, pH 7.4, sterile filtering the drug solution through a 0.22 pm PVDF syringe filter, and freezing aliquots for each day of dosing at −20° C.
All EC17 doses were given towards the end of day (3-4 PM) to allow potential CRS (cytokine release syndrome) to develop overnight.
Tumor growth, body weight, and overall assessment: Tumor sizes were monitored 2-3 times/week and body weight measured 2-3 times/week. On the days immediately after any EC17 dose, body weight measurement was taken daily and attention was given to gross animal morphology and behavior.
Euthanasia: Euthanasia was performed when mice had lost ≥20% of their weight, when tumors reached ≥1500 mm^3. Euthanasia was also performed if mice lost a lot of weight in a short duration (e.g., due to severe head-tilt), or when they approached moribund conditions per CRS grading system.
All animal care and use were performed according to NIH guidelines and in compliance with protocols approved by the Purdue University Animal Use and Care Committee. Female 4 to 5-week-old NOD/SCID gamma (NSG™) mice (stock number:005557) were purchased from The Jackson Faboratory (Bar Harbor, ME). Unless specifically indicated, all animals were maintained on a FA-deficient diet (TestDiet, St. Fouis, MO) upon arrival and throughout the study. To establish subcutaneous xenografts, MDA-MB-231 and HOS-FRα were implanted in the right flank region at 2.5×10^6 and 1×10^6 cells per animal, respectively. For intravenous xenografts, THP1-FRβ) cells were inoculated at 5×10^6 cells per animal. Subcutaneous tumors were measured 2-3 times per week with a caliper and calculated using the ellipsoidal formula (length×width2)/2. […] All animal doses (CAR-T cells, EC17, sodium fluorescein) were given intravenously.
In a therapeutic setting, EC17 CAM can be given before or after CAR-T cell injection. […]

[2] = E2 CAR-T cells + EC17 5/100/1000 nmol/kg, M/Th/M (Cohort 2)

NC1=NC2N=CC(CNc3ccc(C(=O)N[C@@H](CCC(=O)NCCNC(=S)Nc4ccc(-c5c6ccc(=O)cc-6oc6cc(O)ccc56)c(C(=O)O)c4)C(=O)O)cc3)=NC2C(=O)N1 (stereo partly shown) [EC17, FA-(γ)-ethylenediamine-FITC]
affinity for tumor cell surface FR (tumor cell surface FR): sub-nanomolar | Maximum Tolerated Dose (MTD) ([1]; EC17 doses of 3.1×10^−2 and 2.76×10^−1 mg/kg in previously-conducted human studies): not reached | subjects with mild hypersensitivity reaction (most common adverse event) ([1]; intravenous, single agent, 84 subjects): 10.7% | overall tolerability ([1]; intravenous, single agent): well tolerated | serious adverse events ([1]; intravenous, single agent): No serious adverse events were reported | body weight loss or CRS (HOS-FRα tumors; [2]): without body weight loss or CRS | tumor volume of HOS-FRα tumors (HOS-FRα tumors; [2]): significant tumor regression | CAR-T cell expansion in whole blood (flow cytometry) (HOS-FRα tumors; EC17 dose escalation M/Th/M, at euthanasia days 33 and 47): EC17-dependent CAR-T cell expansion up to day 47 but higher on day 33 | CRS or body weight loss (HOS-FRα tumors; ~6 million E2-CAR-T cells + EC17 5/10/100, 5/30/300, 5/50/500 nmol/kg in Cycles 1-3, M/Th/M): no CRS or body weight loss | HOS-FRα tumor growth (HOS-FRα tumors; ~6 million E2-CAR-T cells + EC17 5/10/100, 5/30/300, 5/50/500 nmol/kg in Cycles 1-3, M/Th/M, 6-day break): significant delay in tumor growth within the first two cycles of treatment; also recorded: stopped responding to treatment in Cycle 3
